Experiments:
Assay in all cases: relative viability (nuclei count vs DMSO), 5 days (fraction); higher = more cells survive
201T = tested on: 201T
Procedure, shortened: (§1)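 Relative viability is defined as nuclei in treated wells over nuclei in vehicle wells. Duplicate plates were run and medians reported. Lung cancer cell lines in 1536-well plates were dosed by pin tool one day after seeding, with one drug or with a fixed anchor-drug dose plus five library-drug doses (not always all listed) in √10 steps, and nuclei were counted after 5 days.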

BEN = tested on: BEN
Procedure, shortened: as §1

CAL-12T = tested on: CAL-12T
Procedure, shortened: as §1

HCC-78 = tested on: HCC-78
Procedure, shortened: as §1

HOP-62 = tested on: HOP-62
Procedure, shortened: as §1

LCLC-97TM1 = tested on: LCLC-97TM1
Procedure, shortened: as §1

LOU-NH91 = tested on: LOU-NH91
Procedure, shortened: as §1

NCI-H1355 = tested on: NCI-H1355
Procedure, shortened: as §1

NCI-H1395 = tested on: NCI-H1395
Procedure, shortened: as §1

NCI-H1563 = tested on: NCI-H1563
Procedure, shortened: as §1

NCI-H1651 = tested on: NCI-H1651
Procedure, shortened: as §1

NCI-H1793 = tested on: NCI-H1793
Procedure, shortened: as §1

NCI-H1915 = tested on: NCI-H1915
Procedure, shortened: as §1

NCI-H1944 = tested on: NCI-H1944
Procedure, shortened: as §1

NCI-H2126 = tested on: NCI-H2126
Procedure, shortened: as §1

NCI-H2347 = tested on: NCI-H2347
Procedure, shortened: as §1

NCI-H3122 = tested on: NCI-H3122
Procedure, shortened: as §1

NCI-H322M = tested on: NCI-H322M
Procedure, shortened: as §1

NCI-H441 = tested on: NCI-H441
Procedure, shortened: as §1

NCI-H650 = tested on: NCI-H650
Procedure, shortened: as §1

NCI-H838 = tested on: NCI-H838
Procedure, shortened: as §1

SK-LU-1 = tested on: SK-LU-1
Procedure, shortened: as §1

SW 1573 = tested on: SW 1573
Procedure, shortened: as §1

Structure (SMILES): CCNC(=O)c1noc(-c2cc(C(C)C)c(O)cc2O)c1-c1ccc(CN2CCOCC2)cc1 [Luminespib] + COc1cccc2cc(-c3nc([C@H]4CC[C@H](C(=O)O)CC4)n4ncnc(N)c34)[nH]c12 [OSI-027] (partner 0.5 µM)
- relative viability (201T; first compound 0.002 µM): 0.756
- relative viability (201T; first compound 0.02 µM): 0.668
- relative viability (201T; first compound 0.06325 µM): 0.492
- relative viability (201T; first compound 0.2 µM): 0.159
- relative viability (BEN; first compound 0.002 µM): 0.288
- relative viability (BEN; first compound 0.006325 µM): 0.292
- relative viability (BEN; first compound 0.02 µM): 0.316
- relative viability (BEN; first compound 0.06325 µM): 0.212
- relative viability (BEN; first compound 0.2 µM): 0.183
- relative viability (CAL-12T; first compound 0.002 µM): 0.799
- relative viability (CAL-12T; first compound 0.006325 µM): 0.63
- relative viability (CAL-12T; first compound 0.02 µM): 0.21
- relative viability (CAL-12T; first compound 0.06325 µM): 0.0898
- relative viability (CAL-12T; first compound 0.2 µM): 0.0995
- relative viability (HCC-78; first compound 0.002 µM): 0.361
- relative viability (HCC-78; first compound 0.006325 µM): 0.323
- relative viability (HCC-78; first compound 0.06325 µM): 0.412
- relative viability (HCC-78; first compound 0.2 µM): 0.301
- relative viability (HOP-62; first compound 0.002 µM): 0.83
- relative viability (HOP-62; first compound 0.006325 µM): 0.758
- relative viability (HOP-62; first compound 0.02 µM): 0.648
- relative viability (HOP-62; first compound 0.06325 µM): 0.428
- relative viability (HOP-62; first compound 0.2 µM): 0.111
- relative viability (LCLC-97TM1; first compound 0.002 µM): 0.543
- relative viability (LCLC-97TM1; first compound 0.006325 µM): 0.601
- relative viability (LCLC-97TM1; first compound 0.02 µM): 0.304
- relative viability (LCLC-97TM1; first compound 0.06325 µM): 0.492
- relative viability (LCLC-97TM1; first compound 0.2 µM): 0.114
- relative viability (LOU-NH91; first compound 0.002 µM): 0.684
- relative viability (LOU-NH91; first compound 0.006325 µM): 0.74
- relative viability (LOU-NH91; first compound 0.02 µM): 0.492
- relative viability (LOU-NH91; first compound 0.06325 µM): 0.319
- relative viability (LOU-NH91; first compound 0.2 µM): 0.295
- relative viability (NCI-H1355; first compound 0.002 µM): 0.39
- relative viability (NCI-H1355; first compound 0.006325 µM): 0.377
- relative viability (NCI-H1355; first compound 0.02 µM): 0.277
- relative viability (NCI-H1355; first compound 0.06325 µM): 0.163
- relative viability (NCI-H1355; first compound 0.2 µM): 0.148
- relative viability (NCI-H1395; first compound 0.002 µM): 0.704
- relative viability (NCI-H1395; first compound 0.006325 µM): 0.632
- relative viability (NCI-H1395; first compound 0.02 µM): 0.512
- relative viability (NCI-H1395; first compound 0.06325 µM): 0.337
- relative viability (NCI-H1395; first compound 0.2 µM): 0.321
- relative viability (NCI-H1563; first compound 0.002 µM): 0.756
- relative viability (NCI-H1563; first compound 0.006325 µM): 0.697
- relative viability (NCI-H1563; first compound 0.02 µM): 0.585
- relative viability (NCI-H1563; first compound 0.06325 µM): 0.473
- relative viability (NCI-H1563; first compound 0.2 µM): 0.468
- relative viability (NCI-H1651; first compound 0.002 µM): 0.818
- relative viability (NCI-H1651; first compound 0.006325 µM): 0.622
- relative viability (NCI-H1651; first compound 0.02 µM): 0.42
- relative viability (NCI-H1651; first compound 0.06325 µM): 0.377
- relative viability (NCI-H1651; first compound 0.2 µM): 0.18
- relative viability (NCI-H1793; first compound 0.002 µM): 0.257
- relative viability (NCI-H1793; first compound 0.006325 µM): 0.246
- relative viability (NCI-H1793; first compound 0.02 µM): 0.199
- relative viability (NCI-H1793; first compound 0.06325 µM): 0.125
- relative viability (NCI-H1793; first compound 0.2 µM): 0.112
- relative viability (NCI-H1915; first compound 0.002 µM): 0.596
- relative viability (NCI-H1915; first compound 0.006325 µM): 0.502
- relative viability (NCI-H1915; first compound 0.02 µM): 0.517
- relative viability (NCI-H1915; first compound 0.06325 µM): 0.243
- relative viability (NCI-H1915; first compound 0.2 µM): 0.0689
- relative viability (NCI-H1944; first compound 0.002 µM): 0.422
- relative viability (NCI-H1944; first compound 0.006325 µM): 0.359
- relative viability (NCI-H1944; first compound 0.02 µM): 0.365
- relative viability (NCI-H1944; first compound 0.06325 µM): 0.215
- relative viability (NCI-H1944; first compound 0.2 µM): 0.152
- relative viability (NCI-H2126; first compound 0.002 µM): 0.72
- relative viability (NCI-H2126; first compound 0.006325 µM): 0.651
- relative viability (NCI-H2126; first compound 0.02 µM): 0.533
- relative viability (NCI-H2126; first compound 0.06325 µM): 0.226
- relative viability (NCI-H2126; first compound 0.2 µM): 0.223
- relative viability (NCI-H2347; first compound 0.002 µM): 0.414
- relative viability (NCI-H2347; first compound 0.006325 µM): 0.355
- relative viability (NCI-H2347; first compound 0.02 µM): 0.41
- relative viability (NCI-H2347; first compound 0.06325 µM): 0.185
- relative viability (NCI-H2347; first compound 0.2 µM): 0.227
- relative viability (NCI-H3122; first compound 0.002 µM): 1.01
- relative viability (NCI-H3122; first compound 0.006325 µM): 0.787
- relative viability (NCI-H3122; first compound 0.02 µM): 0.142
- relative viability (NCI-H3122; first compound 0.06325 µM): 0.114
- relative viability (NCI-H3122; first compound 0.2 µM): 0.105
- relative viability (NCI-H322M; first compound 0.002 µM): 0.564
- relative viability (NCI-H322M; first compound 0.006325 µM): 0.503
- relative viability (NCI-H322M; first compound 0.02 µM): 0.467
- relative viability (NCI-H322M; first compound 0.06325 µM): 0.278
- relative viability (NCI-H322M; first compound 0.2 µM): 0.312
- relative viability (NCI-H441; first compound 0.002 µM): 0.655
- relative viability (NCI-H441; first compound 0.006325 µM): 0.588
- relative viability (NCI-H441; first compound 0.02 µM): 0.286
- relative viability (NCI-H441; first compound 0.06325 µM): 0.142
- relative viability (NCI-H441; first compound 0.2 µM): 0.16
- relative viability (NCI-H650; first compound 0.002 µM): 0.477
- relative viability (NCI-H650; first compound 0.006325 µM): 0.545
- relative viability (NCI-H650; first compound 0.02 µM): 0.378
- relative viability (NCI-H650; first compound 0.06325 µM): 0.368
- relative viability (NCI-H650; first compound 0.2 µM): 0.109
- relative viability (NCI-H838; first compound 0.002 µM): 0.391
- relative viability (NCI-H838; first compound 0.006325 µM): 0.375
- relative viability (NCI-H838; first compound 0.02 µM): 0.275
- relative viability (NCI-H838; first compound 0.06325 µM): 0.134
- relative viability (NCI-H838; first compound 0.2 µM): 0.149
- relative viability (SK-LU-1; first compound 0.002 µM): 0.356
- relative viability (SK-LU-1; first compound 0.006325 µM): 0.201
- relative viability (SK-LU-1; first compound 0.02 µM): 0.136
- relative viability (SK-LU-1; first compound 0.06325 µM): 0.0733
- relative viability (SK-LU-1; first compound 0.2 µM): 0.0594
- relative viability (SW 1573; first compound 0.002 µM): 0.633
- relative viability (SW 1573; first compound 0.006325 µM): 0.549
- relative viability (SW 1573; first compound 0.02 µM): 0.199
- relative viability (SW 1573; first compound 0.06325 µM): 0.0962
- relative viability (SW 1573; first compound 0.2 µM): 0.09

Reference: the supplement of paper PMC10307832
